According to PMC10665234, “Nutritional Supplementation and Enhanced Antioxidant Function by Dietary Intake of Selenoneine and Other Selenium Compounds in Red Seabream Pagrus major” (Marine Biotechnology (New York, N.y.), 2023):

Columns and labels:
[1] = Selenoneine concentration in white muscle and blood cell by HPLC-ICP-MS (82Se); type: in vivo, red seabream Pagrus major; settings: for Selenoneine concentration, blood cell / Selenoneine concentration, white muscle: fish cultured for 4 weeks
Method: (§1) Red seabream fry (average body weight of 5.4 g) was obtained from private seed and seedling production company (Oita, Japan) and cultured for seven months up to average body weight of 250 g. Chemical composition of control diet was containing crude protein 50%; […]; Ca 2.3%; ash 16.0%; and phosphorus 1.5%. Each selenium-added diet was fed twice a day for 4 weeks in an amount of 1% of the average body weight. Body weight of fish in each tank was measured when fish were sampled and amount of diet was calculated according to the body weight of every sampling day. The added selenium concentrations in the diets were set in 0 ppm, 1 ppm, and 2 ppm selenium according to the previous study (Tohfuku et al. [2021]). After that, they were fed a commercial diet twice a day for 1 week. The test groups were the control group, the sodium selenite group (1 mg Se/kg feeding group and 2 mg Se/kg feeding group), the selenomethionine group (1 mg Se/kg feeding group and 2 mg Se/kg feeding group), and the selenoneine group (1 mg Se/kg feeding group and 2 mg Se/kg feeding group) were set. The number of fish raised was 15 from the start of rearing in each tank until the 2nd week, 10 from the 3rd to 4th week, and 5 in the 5th week. […] We reared red seabream by feeding of 1% dry pellet containing of sodium selenite, selenomethionine, or selenoneine of body weight twice a day for 4 weeks. After that, we replaced to 1% of commercial dry pellet of body weight twice a day for 1 week from the selenium supplementation. Average water temperature was 20.9 ℃ (19.0–23.9 ℃) and average dissolved oxygen was 7.41 mg/L. The body weight change of red seabream for 5 weeks is shown in Table S2.
(§2) Red seabream was anesthetized by adding 2 mL of anesthetic (1/100 volume of 2-methylquinoline dissolved in ethanol) to 1 L of seawater. A small amount of an anticoagulant (heparin sodium dissolved in physiological saline; 800 units/mL) was placed in a syringe in advance, and blood was collected from the caudal peduncle of each fish. The collected blood was centrifuged at 5000 rpm for 5 min (4 °C), divided into a plasma fraction and a precipitated fraction, and stored at − 50 °C. The precipitated fraction was used for analysis as the blood cell fraction.
Selenoneine was separated by chromatography using a Shodex GF-310 column (4.5 mm × 150 mm; Showa Denko, Tokyo, Japan) equilibrated with 100 mM ammonium formate buffer containing 0.1% (w/v) Igepal CA-630 (MP Biomedicals, CA, USA). The injection volume was at 10 μL. The mobile phase delivered at 0.5 mL/min isocratically. ^82Se was detected with high performance liquid chromatography inductively coupled plasma mass spectrometry (HPLC-ICP-MS; Agilent 1100 Series and Agilent 7500 Series, Agilent Technology) (Yamashita and Yamashita [2010]). During separation, selenoneine was eluted at a retention time of 200 s, and the selenium concentration was determined using selenoneine as a standard.

[2] = system: yellowtail; parameters: method as in Our unpublished research; settings: ref Our unpublished research; cited from earlier work
[3] = Uptake factor of selenoneine from feed (ratio of concentration in muscle or blood cells to feed); type: in vivo, red seabream Pagrus major; settings: artificial feed containing selenoneine at 0.1–2 mg Se/kg
Method: Uptake factor is defined as a ratio of selenoneine concentration in muscle or blood cells to those in feed, and is the same as the biomagnification factor (Yamada et al. [1994]). Thus, uptake factor is an indicator showing the degree of accumulation of selenoneine in muscle or blood cells by dietary intake of feed. The uptake factor was calculated by the following equation on the equilibrium period of the dietary exposure experiments:
Uptake factor = ((Cen − Cb) / CF) × 10^–3where Cen is selenoneine concentration in muscle or blood cells of fish fed with selenoneine-contained feed (ng/kg), Cb is selenoneine concentration in muscle or blood cells of the control fish (ng/kg wet), and CF is the selenoneine concentration in the contained feed (μg/kg).

[4] = system: red seabream; experiment: Oxidation-reduction potential (ORP) in white muscle; type: in vivo, red seabream Pagrus major; settings: 2 weeks; 1 or 2 ppm in diet
Method: ORP was measured with ORP electrode (9300, Horiba, Kyoto, […]). The electrode was pierced into muscle and pressed gently until the potential stabilized for 60 s.

[5] = Total selenium concentrations in the tissues of red seabream after feeding selenium-supplemented dry pellet (fluorometric assay with 2,3-diamino-naphthalene); type: in vivo, red seabream Pagrus major
Method: as §1, §2
Total selenium concentration was determined by fluorometric assay with 2,3-diamino-naphthalene, after digestion in 1.5 mL of nitric acid and perchloric acid (1:2 in volume) at 200–220 ℃ (Watkinson [1966]; Yamashita and Yamashita [2010]).

[6] = 5 weeks (4 weeks supplementation, then 1 week commercial diet), diet 1 mg Se/kg added
[7] = 5 weeks (4 weeks supplementation, then 1 week commercial diet), diet 2 mg Se/kg added

Q: Which “Selenoneine as share of total selenium in blood cell” value ([1]; blood cell, 4 weeks) does the source give for C[N+](C)(C)[C@@H](Cc1cnc([Se-])[nH]1)C(=O)O [Selenoneine, 2-selenyl-Nα, Nα, Nα-trimethyl-L-histidine] here?
A: Its value is “more than 63%”.

Q: What about the “Selenoneine concentration, blood cell” value ([1]; blood cell, diet 1 mg Se/kg added) of the same molecule?
A: The value was 4.72 ± 1.06 mg Se/kg.

Q: What about the “Selenoneine concentration, blood cell” value ([1]; blood cell, diet 1 mg Se/kg added, listed as selenoneine) of the same molecule?
A: The value was 4.72 ± 1.06 mg Se/kg.

Q: And the “Selenoneine concentration, blood cell” value ([1]; blood cell, diet 2 mg Se/kg added)?
A: Its value is 10.29 ± 3.14 mg Se/kg.

Q: What about the “Selenoneine concentration, blood cell” value ([1]; blood cell, diet 2 mg Se/kg added, listed as selenoneine) of the same molecule?
A: Its value is 10.29 ± 3.14 mg Se/kg.

Q: What about the “Selenoneine as share of selenium in white muscle” value ([1]; white muscle, 4 weeks) of the same molecule?
A: Its value is 4.6–7.0%.

Q: What about the “Selenoneine concentration, white muscle” value ([1]; white muscle, diet 1 mg Se/kg added) of the same molecule?
A: Its value is 0.025 ± 0.003 mg Se/kg.

Q: And the “Selenoneine concentration, white muscle” value ([1]; white muscle, diet 1 mg Se/kg added, listed as selenoneine)?
A: Its value is 0.025 ± 0.003 mg Se/kg.

Q: What about the “Selenoneine concentration, white muscle” value ([1]; white muscle, diet 2 mg Se/kg added) of the same molecule?
A: The value was 0.030 ± 0.007 mg Se/kg.

Q: What about the “Selenoneine concentration, white muscle” value ([1]; white muscle, diet 2 mg Se/kg added, listed as selenoneine) of the same molecule?
A: Its value is 0.030 ± 0.007 mg Se/kg.

Q: What about the “Selenoneine concentration in white muscle” value ([1]; white muscle, selenoneine 1 mg Se/kg administration group) of the same molecule?
A: Its value is 25.4 ± 3.2 µg Se/kg.

Q: And the “Selenoneine concentration in white muscle” value ([1]; white muscle, selenoneine 2 mg Se/kg administration group)?
A: Its value is 30.0 ± 6.6 µg Se/kg.

Q: What about the “Ratio of selenium used in selenoneine in white muscle” value ([1]; white muscle, selenoneine 2 ppm administration group) of the same molecule?
A: The value was “about 7.0%”.

Q: What about the “ORP after dietary intake” value [2] of the same molecule?
A: The value was “reduced ORP and approached the ORP of wild fish”.

Q: What about the “Uptake factor of selenoneine in the blood” value ([3]; blood (blood cells)) of the same molecule?
A: Its value is 4.0.

Q: And the “Uptake factor of selenoneine in the white muscle” value ([3]; white muscle)?
A: The value was 0.0062.

Q: And the “ORP in white muscle compared to control” value [4]?
A: Its value is “reduced ORP”.

Q: And the “Total selenium content, blood cell” value ([5]; 2 weeks, diet 1 mg Se/kg added)?
A: The value was 3.98 ± 1.00 mg Se/kg.

Q: And the “Total selenium content, blood cell” value ([5]; 2 weeks, diet 2 mg Se/kg added)?
A: Its value is 9.28 ± 1.67 mg Se/kg.

Q: What about the “Total selenium content, blood cell” value ([5]; 4 weeks, diet 1 mg Se/kg added) of the same molecule?
A: Its value is 5.93 ± 1.00 mg Se/kg.

Q: And the “Total selenium content, blood cell” value ([5]; 4 weeks, diet 2 mg Se/kg added)?
A: The value was 9.94 ± 2.05 mg Se/kg.

Q: What about the “Total selenium content, blood cell” value [5, 6] of the same molecule?
A: The value was 4.70 ± 0.53 mg Se/kg.

Q: What about the “Total selenium content, blood cell” value [5, 7] of the same molecule?
A: Its value is 9.10 ± 1.48 mg Se/kg.

Q: And the “Total selenium content, brain” value ([5]; 2 weeks, diet 1 mg Se/kg added)?
A: Its value is 0.48 ± 0.02 mg Se/kg.

Q: What about the “Total selenium content, brain” value ([5]; 2 weeks, diet 2 mg Se/kg added) of the same molecule?
A: Its value is 0.50 ± 0.04 mg Se/kg.

Q: What about the “Total selenium content, brain” value ([5]; 4 weeks, diet 1 mg Se/kg added) of the same molecule?
A: The value was 0.55 ± 0.06 mg Se/kg.

Q: And the “Total selenium content, brain” value ([5]; 4 weeks, diet 2 mg Se/kg added)?
A: The value was 0.56 ± 0.05 mg Se/kg.

Q: What about the “Total selenium content, brain” value [5, 6] of the same molecule?
A: The value was 0.48 ± 0.09 mg Se/kg.

Q: And the “Total selenium content, brain” value [5, 7]?
A: The value was 0.47 ± 0.04 mg Se/kg.

Q: And the “Tissues in which total selenium was accumulated compared with the control group” value ([5]; diet 1 mg Se/kg)?
A: The value was “white muscle, kidney, spleen, hepatopancreas, brain, and blood cell”.

Q: And the “Tissues in which total selenium was accumulated compared with the control group” value ([5]; diet 2 mg Se/kg)?
A: Its value is “white muscle, heart, kidney, spleen, hepatopancreas, brain, and blood cell”.

Q: And the “Total selenium content, heart” value ([5]; 2 weeks, diet 1 mg Se/kg added)?
A: The value was 1.11 ± 0.11 mg Se/kg.

Q: And the “Total selenium content, heart” value ([5]; 2 weeks, diet 2 mg Se/kg added)?
A: Its value is 1.32 ± 0.18 mg Se/kg.

Q: What about the “Total selenium content, heart” value ([5]; 4 weeks, diet 1 mg Se/kg added) of the same molecule?
A: The value was 1.16 ± 0.11 mg Se/kg.

Q: And the “Total selenium content, heart” value ([5]; 4 weeks, diet 2 mg Se/kg added)?
A: The value was 1.19 ± 0.09 mg Se/kg.

Q: What about the “Total selenium content, heart” value [5, 6] of the same molecule?
A: The value was 1.09 ± 0.15 mg Se/kg.

Q: What about the “Total selenium content, heart” value [5, 7] of the same molecule?
A: Its value is 1.28 ± 0.29 mg Se/kg.

Q: And the “Total selenium content, hepatopancreas” value ([5]; 2 weeks, diet 1 mg Se/kg added)?
A: The value was 1.27 ± 0.18 mg Se/kg.

Q: And the “Total selenium content, hepatopancreas” value ([5]; 2 weeks, diet 2 mg Se/kg added)?
A: Its value is 1.51 ± 0.26 mg Se/kg.

Q: And the “Total selenium content, hepatopancreas” value ([5]; 4 weeks, diet 1 mg Se/kg added)?
A: Its value is 1.22 ± 0.14 mg Se/kg.

Q: And the “Total selenium content, hepatopancreas” value ([5]; 4 weeks, diet 2 mg Se/kg added)?
A: Its value is 1.35 ± 0.18 mg Se/kg.

Q: And the “Total selenium content, hepatopancreas” value [5, 6]?
A: The value was 1.34 ± 0.26 mg Se/kg.

Q: What about the “Total selenium content, hepatopancreas” value [5, 7] of the same molecule?
A: The value was 1.40 ± 0.25 mg Se/kg.

Q: What about the “Total selenium content, kidney” value ([5]; 2 weeks, diet 1 mg Se/kg added) of the same molecule?
A: The value was 3.22 ± 0.18 mg Se/kg.

Q: What about the “Total selenium content, kidney” value ([5]; 2 weeks, diet 2 mg Se/kg added) of the same molecule?
A: Its value is 3.46 ± 0.43 mg Se/kg.

Q: What about the “Total selenium content, kidney” value ([5]; 4 weeks, diet 1 mg Se/kg added) of the same molecule?
A: Its value is 3.17 ± 0.40 mg Se/kg.

Q: What about the “Total selenium content, kidney” value ([5]; 4 weeks, diet 2 mg Se/kg added) of the same molecule?
A: Its value is 4.03 ± 0.72 mg Se/kg.

Q: What about the “Total selenium content, kidney” value [5, 6] of the same molecule?
A: Its value is 2.96 ± 0.32 mg Se/kg.

Q: And the “Total selenium content, kidney” value [5, 7]?
A: The value was 3.51 ± 0.49 mg Se/kg.

Q: What about the “Total selenium content, spleen” value ([5]; 2 weeks, diet 1 mg Se/kg added) of the same molecule?
A: Its value is 3.45 ± 0.56 mg Se/kg.

Q: And the “Total selenium content, spleen” value ([5]; 2 weeks, diet 2 mg Se/kg added)?
A: The value was 4.69 ± 0.79 mg Se/kg.

Q: And the “Total selenium content, spleen” value ([5]; 4 weeks, diet 1 mg Se/kg added)?
A: The value was 3.23 ± 0.37 mg Se/kg.

Q: What about the “Total selenium content, spleen” value ([5]; 4 weeks, diet 2 mg Se/kg added) of the same molecule?
A: Its value is 5.20 ± 1.01 mg Se/kg.

Q: And the “Total selenium content, spleen” value [5, 6]?
A: Its value is 3.15 ± 0.83 mg Se/kg.

Q: And the “Total selenium content, spleen” value [5, 7]?
A: The value was 3.16 ± 0.68 mg Se/kg.

Q: And the “Total selenium content, white muscle” value ([5]; 2 weeks, diet 1 mg Se/kg added)?
A: The value was 0.39 ± 0.05 mg Se/kg.

Q: And the “Total selenium content, white muscle” value ([5]; 2 weeks, diet 2 mg Se/kg added)?
A: The value was 0.35 ± 0.04 mg Se/kg.

Q: And the “Total selenium content, white muscle” value ([5]; 4 weeks, diet 1 mg Se/kg added)?
A: The value was 0.40 ± 0.05 mg Se/kg.

Q: And the “Total selenium content, white muscle” value ([5]; 4 weeks, diet 2 mg Se/kg added)?
A: The value was 0.43 ± 0.04 mg Se/kg.

Q: What about the “Total selenium content, white muscle” value [5, 6] of the same molecule?
A: The value was 0.38 ± 0.04 mg Se/kg.

Q: What about the “Total selenium content, white muscle” value [5, 7] of the same molecule?
A: Its value is 0.38 ± 0.03 mg Se/kg.
